Structures are written as SMILES.

For one experiment, the target named is T1, human TLR7 (Homo sapiens, UniProt Q9NYK1).
T1 construct: host or cells: HEK-Blue TLR7 cells (engineered human embryonic kidney cells)
T1 sequence (Q9NYK1 27-1049): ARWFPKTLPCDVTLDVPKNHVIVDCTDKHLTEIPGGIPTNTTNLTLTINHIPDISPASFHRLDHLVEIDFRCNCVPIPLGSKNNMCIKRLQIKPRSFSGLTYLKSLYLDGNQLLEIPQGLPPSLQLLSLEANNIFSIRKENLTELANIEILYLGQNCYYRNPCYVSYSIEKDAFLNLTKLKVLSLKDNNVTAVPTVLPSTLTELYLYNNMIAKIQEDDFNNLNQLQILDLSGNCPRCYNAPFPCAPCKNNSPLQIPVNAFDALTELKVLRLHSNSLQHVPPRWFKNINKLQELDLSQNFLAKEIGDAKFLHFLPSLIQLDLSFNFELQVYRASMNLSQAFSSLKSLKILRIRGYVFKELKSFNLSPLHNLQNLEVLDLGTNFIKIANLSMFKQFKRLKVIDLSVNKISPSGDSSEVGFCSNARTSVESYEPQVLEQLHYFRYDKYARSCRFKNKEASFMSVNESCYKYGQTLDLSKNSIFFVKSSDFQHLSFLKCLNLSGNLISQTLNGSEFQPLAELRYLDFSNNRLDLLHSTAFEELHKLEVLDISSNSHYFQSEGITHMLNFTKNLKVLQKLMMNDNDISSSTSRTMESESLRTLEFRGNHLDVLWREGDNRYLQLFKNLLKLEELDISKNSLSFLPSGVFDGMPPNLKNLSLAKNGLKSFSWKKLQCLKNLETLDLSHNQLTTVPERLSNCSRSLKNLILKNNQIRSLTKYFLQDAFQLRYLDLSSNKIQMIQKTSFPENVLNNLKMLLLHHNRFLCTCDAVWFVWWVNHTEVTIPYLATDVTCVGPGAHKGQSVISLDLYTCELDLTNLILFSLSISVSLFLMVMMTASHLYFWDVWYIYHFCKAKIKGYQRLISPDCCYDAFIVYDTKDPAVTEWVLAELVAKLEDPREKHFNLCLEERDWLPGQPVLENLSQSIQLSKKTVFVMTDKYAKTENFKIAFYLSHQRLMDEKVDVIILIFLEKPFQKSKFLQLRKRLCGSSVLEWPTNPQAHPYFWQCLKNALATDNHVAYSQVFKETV
Kind of experiment: Human TLR7 agonist activity (hTLR7 reporter) assay in HEK-Blue TLR7 cells, SEAP readout. The experiment is classed as cell-based. Particulars: 18 h treatment, average where assay repeated. The procedure: This procedure describes a method for assaying human TLR7 (hTLR7) agonist activity of the compounds disclosed in this specification.
HEK-Blue™ TLR7 cells were added to each well of a 384-well tissue-culture plate (15,000 cells per well) and incubated 16-18 h at 37° C., 5% CO2. Compounds (100 nl) were dispensed into wells containing the HEK-Blue™ TLR cells and the treated cells were incubated at 37° C., 5% CO2. After 18 h treatment ten microliters of freshly-prepared Quanti-Blue™ reagent (Invivogen) was added to each well, incubated for 30 min (37° C., 5% CO2) and SEAP levels measured using an Envision plate reader (OD=620 nm). The half maximal effective concentration values (EC50; compound concentration which induced a response halfway between the assay baseline and maximum) were calculated.
With `COc1cc(CNC2CCC2)ccc1Cn1ncc2nc(N)nc(NCC3CC4(C3)CC4F)c21` (mixture of isomers) [Compound 115], the response was half-maximal at 84.1 nM (EC50).

`COc1cc(CNC2CCC2)ccc1Cn1ncc2nc(N)nc(NCC3CC4(C3)CC4(F)F)c21` (mixture of isomers) [Compound 136] returned a concentration for a half-maximal effect (EC50) of 68.1 nM.

`CCC[C@@H](CCO)Nc1nc(N)nc2cnn(Cc3ccc(CN4CC5(C4)CN(C(C)=O)C5)cc3OC)c12` [Compound 101]: the EC50 came to 32.4 nM.

The molecule `CCCCNc1nc(N)nc2cnn(Cc3ccc(CN4CC5(C4)CC(F)(F)C5)cc3OC)c12` [Compound 102] showed an EC50 of 95.4 nM.

As for `CCCCNc1nc(N)nc2cnn(Cc3ccc(CN4CC5(COC5)C4)cc3OC)c12` [Compound 103], the EC50 came out at 62.9 nM.

Molecule `CCCCNc1nc(N)nc2cnn(Cc3ccc(CN4CC5(C4)CN(C(=O)CC(C)C)C5)cc3OC)c12` [Compound 104] yielded a half-maximal effective concentration (EC50) of 138 nM.

Take `CCCCNc1nc(N)nc2cnn(Cc3ccc(CN4CC5(C4)CN(C(=O)C(C)(C)C)C5)cc3OC)c12` [Compound 105]: it took 60 nM to reach a half-maximal effect (EC50).

Molecule `CCC[C@@H](CCO)Nc1nc(N)nc2cnn(Cc3ccc(CN4CC5(C4)CN(C(=O)C4CCC4)C5)cc3OC)c12` [Compound 106] registered a concentration for a half-maximal effect (EC50) of 11.6 nM.

Molecule `CCC[C@@H](CCO)Nc1nc(N)nc2cnn(Cc3ccc(CN4CC5(C4)CN(C(=O)C4(C)CC4)C5)cc3OC)c12` [Compound 107] yielded an EC50 of 6.6 nM.

`COc1cc(CN2CC3(C2)CN(C(C)=O)C3)ccc1Cn1ncc2nc(N)nc(NCC3CC34CC4)c21` (centres unmarked) [Compound 109] displayed a concentration for a half-maximal effect (EC50) of 1230 nM.

For the molecule `CCCCNc1nc(N)nc2cnn(Cc3ccc(CN4CC5(C4)CN(C(=O)C4CCC4)C5)cc3OC)c12` [Compound 110], a half-maximal effect (EC50) was put at 31.9 nM.

Regarding `CCC[C@@H](CCO)Nc1nc(N)nc2cnn(Cc3ccc(CNC4CCOCC45CCC5)cc3OC)c12` (some centres unmarked) [Compound 114], the EC50 is 3.4 nM.

`COc1cc(CNC2CCOCC2)ccc1Cn1ncc2nc(N)nc(NCC3CC4(C3)CC4F)c21` (centres unmarked) [Compound 116] came in with a concentration giving a half-maximal response (EC50) of 163 nM.

As to `COc1cc(CN2C[C@H]3CN(C)C[C@H]3C2)ccc1Cn1ncc2nc(N)nc(NCC3CC4(C3)CC4F)c21` (some centres unmarked) [Compound 118], the EC50 stood at 137 nM.

In the case of `COc1cc(CN2CC3(CN(C)C3)C2)ccc1Cn1ncc2nc(N)nc(NCC3CC4(C3)CC4F)c21` (centres unmarked) [Compound 120], the midpoint of the response, the EC50, lay at 262 nM.

In turn, `COc1cc(CN2CC3(C2)CN(C(C)=O)C3)ccc1Cn1ncc2nc(N)nc(NCC3CC4(C3)CC4(F)F)c21` (centres unmarked) [Compound 122] came in with an EC50 of 241 nM.

As for `COc1cc(CN2CC3(C2)CN(C(C)C2(C)CC2)C3)ccc1Cn1ncc2nc(N)nc(NCC3CC4(C3)CC4(F)F)c21` (centres unmarked) [Compound 123], the EC50 came out at 320 nM.

Molecule `COc1cc(CN2C[C@@H]3C[C@H]2CN3)ccc1Cn1ncc2nc(N)nc(NCC3CC4(C3)CC4F)c21` (some centres unmarked) [Compound 124] returned a 50% effective concentration (EC50) of 193 nM.

For `COc1cc(CN2C[C@H]3C[C@@H]2CN3C)ccc1Cn1ncc2nc(N)nc(NCC3CC4(C3)CC4F)c21` (some centres unmarked) [Compound 125], the EC50 amounted to 59.2 nM.

Molecule `COc1cc(CN2C[C@H]3CNC[C@H]3C2)ccc1Cn1ncc2nc(N)nc(NCC3CC4(C3)CC4F)c21` (some centres unmarked) [Compound 126] showed an EC50 of 244 nM.

With `COc1cc(CN2CC3(C2)CN(C(=O)C2(C)CC2)C3)ccc1Cn1ncc2nc(N)nc(NCC3CC4(C3)CC4F)c21` (centres unmarked) [Compound 128], the EC50 amounted to 349 nM.

Molecule `COc1cc(CNC2CCC2)ccc1Cn1ncc2nc(N)nc(NCC3CC4(CC4)C3)c21` [Compound 129] registered an EC50 of 24.4 nM.

`COc1cc(CNC2CCOCC2)ccc1Cn1ncc2nc(N)nc(NCC3CC4(CC4)C3)c21` [Compound 130] gave an EC50 of 39.7 nM.

As to `COc1cc(CN2C[C@H]3C[C@@H]2CN3C)ccc1Cn1ncc2nc(N)nc(NCC3CC4(CC4)C3)c21` [Compound 134], the EC50 is 16.6 nM.

Consider `COc1cc(CN2CC3(CCOCC3)C2)ccc1Cn1ncc2nc(N)nc(NCC3CC4(CC4)C3)c21` [Compound 135], for which the half-maximal effective concentration (EC50) came to 69.8 nM.

Molecule `COc1cc(CNC2CCOCC2)ccc1Cn1ncc2nc(N)nc(NCC3CC4(C3)CC4(F)F)c21` (centres unmarked) [Compound 137] showed an EC50 of 88.1 nM.

`COc1cc(CN2CC3(CN(C)C3)C2)ccc1Cn1ncc2nc(N)nc(NCC3CC4(C3)CC4(F)F)c21` (centres unmarked) [Compound 138] registered an EC50 of 244 nM.

As for `COc1cc(CN2C[C@H]3CNC[C@H]3C2)ccc1Cn1ncc2nc(N)nc(NCC3CC4(C3)CC4(F)F)c21` (some centres unmarked) [Compound 140], the response was half-maximal at 435 nM (EC50).

Take `COc1cc(CN2C[C@H]3C[C@@H]2CN3C)ccc1Cn1ncc2nc(N)nc(NCC3CC4(C3)CC4(F)F)c21` (some centres unmarked) [Compound 142]: the concentration for a half-maximal effect (EC50) came to 49.7 nM.

In the case of `COc1cc(CN2CC3(CC(O)C3)C2)ccc1Cn1ncc2nc(N)nc(NCC3CC4(C3)CC4(F)F)c21` (centres unmarked) [Compound 143], the EC50 was 103 nM.

`COc1cc(CN2CC3(CC(OC)C3)C2)ccc1Cn1ncc2nc(N)nc(NCC3CC4(C3)CC4(F)F)c21` (centres unmarked) [Compound 144] yielded an EC50 of 69.5 nM.

As to `COc1cc(C(=O)N2CC3(CC(O)C3)C2)ccc1Cn1ncc2nc(N)nc(NCC3CC4(C3)CC4(F)F)c21` (centres unmarked) [Compound 160], a half-maximal response (EC50) required 2580 nM.

`COc1cc(C(=O)N2CCOCC2)ccc1Cn1ncc2nc(N)nc(NCC3CC4(C3)CC4(F)F)c21` (centres unmarked) [Compound 161] showed an EC50 of 354 nM.

In turn, `COc1cc(C(=O)N(C)C)ccc1Cn1ncc2nc(N)nc(NCC3CC4(C3)CC4(F)F)c21` (centres unmarked) [Compound 162] showed a concentration for a half-maximal effect (EC50) of 497 nM.

The molecule `COc1cc(C(=O)NC2CCN(C)CC2)ccc1Cn1ncc2nc(N)nc(NCC3CC4(C3)CC4(F)F)c21` (centres unmarked) [Compound 164] gave an EC50 of 638 nM.

Turning to `COc1cc(C(=O)N2CCN(C)CC2)ccc1Cn1ncc2nc(N)nc(NCC3CC4(C3)CC4(F)F)c21` (centres unmarked) [Compound 165], the concentration for a half-maximal effect (EC50) worked out at 147 nM.

The next experiment concerns CD69 in human whole blood. As to the kind of experiment: Induction of CD69 in human whole blood (hWB). The experiment is classed as cell-based. To be noted: heparinized human whole blood, 17 h, CD69 surface staining; 100% set to 1 uM resiquimod; average where assay repeated. The procedure: The induction of Type I interferon (IFN) MX-1 genes and the B-cell activation marker CD69 are downstream events that occur upon activation of the TLR7 pathway. The following is a human whole blood assay that measures their induction in response to a TLR7 agonist.
Heparinized human whole blood was harvested from human subjects and treated with test TLR7 agonist compounds at 1 mM. The blood was diluted with RPMI 1640 media and Echo was used to predot 10 nL per well giving a final concentration of 1 uM (10 nL in 10 uL of blood). After mixing on a shaker for 30 sec, the plates were covered and placed in a 37° C. chamber for o/n=17 hrs. Fixing/lysis buffer was prepared (5×->1×in H2O, warm at 37° C.; Cat# BD 558049) and kept the perm buffer (on ice) for later use.
For surface markers staining (CD69): prepared surface Abs: 0.045 ul hCD14-FITC (ThermoFisher Cat # MHCD1401)+0.6 ul hCD19-ef450 (ThermoFisher Cat #48-0198-42)+1.5 ul hCD69-PE (cat# BD555531)+0.855 ul FACS buffer. Added 3 ul/well, spin1000 rpm for 1 min and mixed on shaker for 30 sec, put on ice for 30 mins. Stop stimulation after 30 minutes with 70 uL of prewarmed 1×fix/lysis buffer and use Feliex mate to resuspend (15 times, change tips for each plate) and incubate at 37° C. for 10 minutes.
Centrifuge at 2000 rpm for 5 minutes aspirate with HCS plate washer, mix on shaker for 30 sec and then wash with 70 uL in dPBS and pelleted 2 xs (2000 rpm for 5 min) and 50 ul wash in FACS buffer pelleted 1 xs(2000 rpm for 5 min). Mix on shaker for 30 sec. For Intracellular markers staining (MX-1): Add 50 ul of BD Perm buffer III and mix on shaker for 30 sec. Incubate on ice for 30 minutes (in the dark). Wash with 50 uL of FACS buffer 2×(spin @2300 rpm×5 min after perm) followed by mixing on shaker for 30 sec. Resuspended in 20 ul of FACS buffer containing MX1 antibody ( )(4812)-Alexa 647: Novus Biologicals #NBP2-43704AF647) 20 ul FACS bf+0.8 ul hlgG+0.04 ul MX-1. Spin 1000 rpm for 1 min, mix on shaker for 30 se and the samples were incubated at RT in the dark for 45 minutes followed by washing 2×FACS buffer (spin @2300 rpm×5 min after perm). Resuspend 20 ul (35 uL total per well) of FACS buffer and cover with foil and place in 4° C. to read the following day. Plates were read on iQuePlus. The results were loaded into toolset and […] curves are generated in curve master. The y-axis 100% is set to 1 uM of resiquimod.
For the molecule `CCC[C@@H](CCO)Nc1nc(N)nc2cnn(Cc3ccc(CN4CC5(C4)CN(C(C)=O)C5)cc3OC)c12` [Compound 101], the midpoint of the response, the EC50, lay at 4.5 nM.

In turn, `CCCCNc1nc(N)nc2cnn(Cc3ccc(CN4CC5(COC5)C4)cc3OC)c12` [Compound 103] returned a concentration giving a half-maximal response (EC50) of 13.5 nM.

Take `CCC[C@@H](CCO)Nc1nc(N)nc2cnn(Cc3ccc(CN4CC5(C4)CN(C(=O)C4CCC4)C5)cc3OC)c12` [Compound 106]: a half-maximal effect (EC50) was put at 24.9 nM.

For `CCC[C@@H](CCO)Nc1nc(N)nc2cnn(Cc3ccc(CN4CC5(C4)CN(C(=O)C4(C)CC4)C5)cc3OC)c12` [Compound 107], the 50% effective concentration (EC50) came to 9.9 nM.

Turning to `COc1cc(CN2CC3(C2)CN(C(C)=O)C3)ccc1Cn1ncc2nc(N)nc(NCc3cc(C)on3)c21` [Compound 212], the half-maximal effective concentration (EC50) was 61.9 nM.

What is called EC50 is the concentration giving half of the maximal effect. A low value points to higher potency in that assay.
